ChEMBL document CHEMBL3045012, “Quinoline-based azetidinone and thiazolidinone analogues as antimicrobial and antituberculosis agents” (2013)
Converted amounts (≈) assume the structure as drawn.

Experiments:
Format in all cases: functional
Aspergillus niger [1] = test: Antimicrobial activity against Aspergillus niger MTCC 282 assessed as growth inhibition after 48 hr by agar streak dilution technique; details: MTCC 282, 48 h
Bacillus subtilis [2] = test: Antimicrobial activity against Bacillus subtilis MTCC 430 assessed as diameter of growth inhibition zone after 24 hr by paper disk diffusion technique; note: test concentration or dose not given here
Escherichia coli [3] = test: Antimicrobial activity against Escherichia coli MTCC 739 assessed as diameter of growth inhibition zone after 24 hr by paper disk diffusion technique; note: test concentration or dose not given here
[4] = system: Mycobacterium tuberculosis; test: Antituberculosis activity against Mycobacterium tuberculosis H37Rv assessed as growth inhibition after 12 to 28 days by L-J MIC method; details: for MIC: Mycobacterium tuberculosis, H37Rv
Staphylococcus aureus [5] = test: Antimicrobial activity against Staphylococcus aureus MTCC 96 assessed as growth inhibition after 24 hr by agar streak dilution technique; details: MTCC 96, 24 h
Pseudomonas aeruginosa [6] = test: Antimicrobial activity against Pseudomonas aeruginosa MTCC 741 assessed as diameter of growth inhibition zone after 24 hr by paper disk diffusion technique; note: test concentration or dose not given here
Bacillus subtilis [7] = test: Antimicrobial activity against Bacillus subtilis MTCC 430 assessed as growth inhibition after 24 hr by agar streak dilution technique; details: MTCC 430, 24 h
Pseudomonas aeruginosa [8] = test: Antimicrobial activity against Pseudomonas aeruginosa MTCC 741 assessed as growth inhibition after 24 hr by agar streak dilution technique; details: MTCC 741, 24 h
Escherichia coli [9] = test: Antimicrobial activity against Escherichia coli MTCC 739 assessed as growth inhibition after 24 hr by agar streak dilution technique; details: MTCC 739, 24 h
Candida albicans [10] = test: Antimicrobial activity against Candida albicans MTCC 183 assessed as growth inhibition after 48 hr by agar streak dilution technique; details: MTCC 183, 48 h
Aspergillus niger [11] = test: Antimicrobial activity against Aspergillus niger MTCC 282 assessed as diameter of growth inhibition zone after 24 hr by paper disk diffusion technique; note: test concentration or dose not given here
Candida albicans [12] = test: Antimicrobial activity against Candida albicans MTCC 183 assessed as diameter of growth inhibition zone after 24 hr by paper disk diffusion technique; note: test concentration or dose not given here
Staphylococcus aureus [13] = test: Antimicrobial activity against Staphylococcus aureus MTCC 96 assessed as diameter of growth inhibition zone after 24 hr by paper disk diffusion technique; note: test concentration or dose not given here

Structure (SMILES) | MIC (Aspergillus niger [1]) [µg/mL] | diameter of the inhibition zone (DIZ) (Bacillus subtilis [2]) [mm] | diameter of the inhibition zone (DIZ) (Escherichia coli [3]) [mm] | growth inhibition (GI) [4] [%] | MIC [4] [µg/mL] | MIC (Staphylococcus aureus [5]) [µg/mL] | diameter of the inhibition zone (DIZ) (Pseudomonas aeruginosa [6]) [mm] | MIC (Bacillus subtilis [7]) [µg/mL] | MIC (Pseudomonas aeruginosa [8]) [µg/mL] | MIC (Escherichia coli [9]) [µg/mL] | MIC (Candida albicans [10]) [µg/mL] | diameter of the inhibition zone (DIZ) (Aspergillus niger [11]) [mm] | diameter of the inhibition zone (DIZ) (Candida albicans [12]) [mm] | diameter of the inhibition zone (DIZ) (Staphylococcus aureus [13]) [mm]
O=C1CSC(c2cc3ccccc3nc2Cl)N1c1ccccc1[N+](=O)[O-] (stereo not given) | 50 (≈ 130 µM) | 21 | 24 | 93 | 200 (≈ 518 µM) | 25 (≈ 64.8 µM) | 25 | 62.5 (≈ 162 µM) | 12.5 (≈ 32.4 µM) | 12.5 (≈ 32.4 µM) | 100 (≈ 259 µM) | 22 | 20 | 25
O=C1C(Cl)C(c2cc3ccccc3nc2Cl)N1c1ccc([N+](=O)[O-])cc1 (stereo not given) | 50 (≈ 129 µM) | 23 | 20 | 96 | 50 (≈ 129 µM) | 12.5 (≈ 32.2 µM) | 23 | 50 (≈ 129 µM) | 12.5 (≈ 32.2 µM) | 100 (≈ 258 µM) | 100 (≈ 258 µM) | 24 | 19 | 25
O=C1C(Cl)C(c2cc3ccccc3nc2Cl)N1c1cccc([N+](=O)[O-])c1 (stereo not given) | 50 (≈ 129 µM) | 21 | 22 | 93 | 100 (≈ 258 µM) | 25 (≈ 64.4 µM) | 22 | 50 (≈ 129 µM) | 50 (≈ 129 µM) | 62.5 (≈ 161 µM) | 100 (≈ 258 µM) | 26 | 19 | 25
O=C1C(Cl)C(c2cc3ccccc3nc2Cl)N1c1ccccc1Cl (stereo not given) | 100 (≈ 265 µM) | 24 | 21 | 97 | 62.5 (≈ 165 µM) | 62.5 (≈ 165 µM) | 20 | 12.5 (≈ 33.1 µM) | 50 (≈ 132 µM) | 62.5 (≈ 165 µM) | 100 (≈ 265 µM) | 19 | 18 | 24
Cc1ccc(N2C(=O)C(Cl)C2c2cc3ccccc3nc2Cl)cc1 (stereo not given) | 100 (≈ 280 µM) | 16 | 15 | 94 | 200 (≈ 560 µM) | 100 (≈ 280 µM) | 13 | 100 (≈ 280 µM) | 100 (≈ 280 µM) | 100 (≈ 280 µM) | 100 (≈ 280 µM) | <10 | 19 | 17
